In patent US9603364B2 (Dow AgroSciences LLC, priority 2013, dated 2017):

Tests used:
Experiment in all cases: General post-emergent herbicidal activity, foliar application
Assay type in all cases: in vivo
[1] = test system: Chenopodium album L. (lambsquarters, common); conditions: for pest or weed control at 35 g/ha / pest or weed control at 70 g/ha / pest or weed control at 140 g/ha / pest or weed control at 280 g/ha: Chenopodium album, 336 h, foliar post-emergent, scored after 14 days, read-out: % Visual Growth Reduction CHEAL; for pest or weed control at 35 g/ha: 35 g ai/ha; for pest or weed control at 70 g/ha: 70 g ai/ha; for pest or weed control at 140 g/ha: 140 g ai/ha; for pest or weed control at 280 g/ha: 280 g ai/ha; for GR80 Value CHEAL: calculated by probit analysis, dose for 80% visual injury, may be extrapolated
Summary of the method: (§1)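 Visual injury ratings on a scale of 0 (none) to 100% (complete kill), taken 14 days after foliar post-emergence treatment of greenhouse plants and compared with untreated plants, were fitted by probit analysis to give GR20, GR50 and GR80 doses; some GR80 values are extrapolated from the slope. Sprays contained crop oil concentrate and surfactant, with rates from the highest down to 1/16×.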

[2] = test system: Amaranthus retroflexus L. (pigweed, redroot); conditions: for pest or weed control at 35 g/ha / pest or weed control at 70 g/ha / pest or weed control at 140 g/ha / pest or weed control at 280 g/ha: Amaranthus retroflexus, 336 h, foliar post-emergent, scored after 14 days, read-out: % Visual Growth Reduction AMARE; for pest or weed control at 35 g/ha: 35 g ai/ha; for pest or weed control at 70 g/ha: 70 g ai/ha; for pest or weed control at 140 g/ha: 140 g ai/ha; for pest or weed control at 280 g/ha: 280 g ai/ha; for GR80 Value AMARE: calculated by probit analysis, dose for 80% visual injury, may be extrapolated
Summary of the method: as §1

[3] = test system: Helianthus annuus L. (sunflower, common); conditions: for pest or weed control at 35 g/ha / pest or weed control at 70 g/ha / pest or weed control at 140 g/ha / pest or weed control at 280 g/ha: Helianthus annuus, 336 h, foliar post-emergent, scored after 14 days, read-out: % Visual Growth Reduction HELAN; for pest or weed control at 35 g/ha: 35 g ai/ha; for pest or weed control at 70 g/ha: 70 g ai/ha; for pest or weed control at 140 g/ha: 140 g ai/ha; for pest or weed control at 280 g/ha: 280 g ai/ha; for GR80 Value HELAN: calculated by probit analysis, dose for 80% visual injury, may be extrapolated
Summary of the method: as §1

[4] = test system: Echinochloa crus-galli (L.) Beauv. (barnyardgrass); conditions: for pest or weed control at 35 g/ha / pest or weed control at 70 g/ha / pest or weed control at 140 g/ha / pest or weed control at 280 g/ha: Echinochloa crus-galli, 336 h, foliar post-emergent, scored after 14 days, read-out: % Visual Growth Reduction ECHCG; for pest or weed control at 35 g/ha: 35 g ai/ha; for pest or weed control at 70 g/ha: 70 g ai/ha; for pest or weed control at 140 g/ha: 140 g ai/ha; for pest or weed control at 280 g/ha: 280 g ai/ha; for GR80 Value ECHCG: calculated by probit analysis, dose for 80% visual injury, may be extrapolated
Summary of the method: as §1

[5] = test system: Euphorbia heterophylla L. (poinsettia, wild); conditions: for pest or weed control at 35 g/ha / pest or weed control at 70 g/ha / pest or weed control at 140 g/ha / pest or weed control at 280 g/ha: Euphorbia heterophylla, 336 h, foliar post-emergent, scored after 14 days, read-out: % Visual Growth Reduction EPHHL; for pest or weed control at 35 g/ha: 35 g ai/ha; for pest or weed control at 70 g/ha: 70 g ai/ha; for pest or weed control at 140 g/ha: 140 g ai/ha; for pest or weed control at 280 g/ha: 280 g ai/ha; for GR80 Value EPHHL: calculated by probit analysis, dose for 80% visual injury, may be extrapolated
Summary of the method: as §1

[6] = test system: Viola tricolor L. (pansy); conditions: for pest or weed control at 35 g/ha / pest or weed control at 70 g/ha / pest or weed control at 140 g/ha / pest or weed control at 280 g/ha: Viola tricolor, 336 h, foliar post-emergent, scored after 14 days, read-out: % Visual Growth Reduction VIOTR; for pest or weed control at 35 g/ha: 35 g ai/ha; for pest or weed control at 70 g/ha: 70 g ai/ha; for pest or weed control at 140 g/ha: 140 g ai/ha; for pest or weed control at 280 g/ha: 280 g ai/ha; for GR80 Value VIOTR: calculated by probit analysis, dose for 80% visual injury, may be extrapolated
Summary of the method: as §1

Zea mays L. (corn) = conditions: 336 h, scored after 14 days, read-out: % Visual Growth Reduction ZEAMX; for plant injury at 35 g/ha: 35 g ai/ha; for plant injury at 70 g/ha: 70 g ai/ha; for plant injury at 140 g/ha: 140 g ai/ha; for plant injury at 280 g/ha: 280 g ai/ha
Summary of the method: (§2)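 Injury rated visually 14 days after treatment on a 0 (none) to 100% (complete kill) scale against untreated plants; greenhouse-grown, sub-irrigated to avoid wash-off. Foliar spray in aqueous acetone/DMSO with isopropanol, crop oil concentrate and Triton X-155, at a highest rate and 2-fold serial dilutions down to 1/16×.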

Oryza sativa L. (rice) = conditions: Oryza sativa, 336 h, scored after 14 days, read-out: % Visual Growth Reduction ORYSA; for plant injury at 35 g/ha: 35 g ai/ha; for plant injury at 70 g/ha: 70 g ai/ha; for plant injury at 140 g/ha: 140 g ai/ha; for plant injury at 280 g/ha: 280 g ai/ha
Summary of the method: as §2

| Compound | pest or weed control at 35 g/ha [1] [%] | pest or weed control at 70 g/ha [1] [%] | pest or weed control at 140 g/ha [1] [%] | GR80 Value CHEAL [1] [g ai/ha] | pest or weed control at 35 g/ha [2] [%] | pest or weed control at 70 g/ha [2] [%] | pest or weed control at 140 g/ha [2] [%] | GR80 Value AMARE [2] [g ai/ha] | pest or weed control at 35 g/ha [3] [%] | pest or weed control at 70 g/ha [3] [%] | pest or weed control at 140 g/ha [3] [%] | GR80 Value HELAN [3] [g ai/ha] | pest or weed control at 35 g/ha [4] [%] | pest or weed control at 70 g/ha [4] [%] | pest or weed control at 140 g/ha [4] [%] | GR80 Value ECHCG [4] [g ai/ha] | pest or weed control at 35 g/ha [5] [%] | pest or weed control at 70 g/ha [5] [%] | pest or weed control at 140 g/ha [5] [%] | GR80 Value EPHHL [5] [g ai/ha] | other results |
| --- | --- | --- | --- | --- | --- | --- | --- | --- | --- | --- | --- | --- | --- | --- | --- | --- | --- | --- | --- | --- | --- |
| COC(=O)c1nc(C(C)F)cc(N)c1Cl (stereo not shown) [Compound F19, Methyl 4-amino-3-chloro-6-(1-fluoroethyl)picolinate] | 100 | 100 | 100 | <17.5 | 100 | 100 | 100 | 19.1 | 10 | 20 | 50 | 341 | 0 | 0 | 20 | >280 | 10 | 90 | 100 | 72.3 | pest or weed control at 280 g/ha [1]: 100%; pest or weed control at 280 g/ha [2]: 100%; pest or weed control at 280 g/ha [3]: 80%; pest or weed control at 280 g/ha [4]: 25%; pest or weed control at 280 g/ha [5]: 100%; pest or weed control at 35 g/ha [6]: 100%; pest or weed control at 70 g/ha [6]: 100%; pest or weed control at 140 g/ha [6]: 100%; pest or weed control at 280 g/ha [6]: 100%; GR80 Value VIOTR [6]: 34.3 g ai/ha; plant injury at 35 g/ha (Zea mays L. (corn)): 0%; plant injury at 70 g/ha (Zea mays L. (corn)): 0%; plant injury at 140 g/ha (Zea mays L. (corn)): 90%; plant injury at 280 g/ha (Zea mays L. (corn)): 100%; plant injury at 35 g/ha (Oryza sativa L. (rice)): 0%; plant injury at 70 g/ha (Oryza sativa L. (rice)): 0%; plant injury at 140 g/ha (Oryza sativa L. (rice)): 0%; plant injury at 280 g/ha (Oryza sativa L. (rice)): 0% |
| COC(=O)c1nc(CF)c(F)c(N)c1Cl [Compound F14, Methyl 4-amino-3-chloro-5-fluoro-6-(fluoromethyl)picolinate] | 85 | 90 | 100 | 16.8 | 70 | 80 | 90 | 89.2 | 85 | 90 | 95 | 18 | 0 | 0 | 15 | 411 | 10 | 100 | 100 | 53.9 | pest or weed control at 280 g/ha [1]: 100%; pest or weed control at 280 g/ha [2]: 100%; pest or weed control at 280 g/ha [3]: 95%; pest or weed control at 280 g/ha [4]: 60%; pest or weed control at 280 g/ha [5]: 100%; pest or weed control at 35 g/ha [6]: 0%; pest or weed control at 70 g/ha [6]: 0%; pest or weed control at 140 g/ha [6]: 50%; pest or weed control at 280 g/ha [6]: 60%; GR80 Value VIOTR [6]: 334 g ai/ha; plant injury at 35 g/ha (Zea mays L. (corn)): 0%; plant injury at 70 g/ha (Zea mays L. (corn)): 0%; plant injury at 140 g/ha (Zea mays L. (corn)): 20%; plant injury at 280 g/ha (Zea mays L. (corn)): 45%; plant injury at 35 g/ha (Oryza sativa L. (rice)): 0%; plant injury at 70 g/ha (Oryza sativa L. (rice)): 0%; plant injury at 140 g/ha (Oryza sativa L. (rice)): 0%; plant injury at 280 g/ha (Oryza sativa L. (rice)): 0% |
| COC(=O)c1nc(C(C)F)c(Cl)c(N)c1Cl (stereo not shown) [Compound F10, Methyl 4-amino-3,5-dichloro-6-(1-fluoroethyl)picolinate] | 80 | 85 | 85 | 23.7 | 85 | 98 | 100 | 18.1 | 80 | 85 | 100 | 124 | 0 | 0 | 0 | >140 | 0 | 20 | 30 | >140 | pest or weed control at 35 g/ha [6]: 0%; pest or weed control at 70 g/ha [6]: 0%; pest or weed control at 140 g/ha [6]: 0%; GR80 Value VIOTR [6]: >140 g ai/ha; plant injury at 35 g/ha (Zea mays L. (corn)): 0%; plant injury at 70 g/ha (Zea mays L. (corn)): 0%; plant injury at 140 g/ha (Zea mays L. (corn)): 0%; plant injury at 35 g/ha (Oryza sativa L. (rice)): 0%; plant injury at 70 g/ha (Oryza sativa L. (rice)): 0%; plant injury at 140 g/ha (Oryza sativa L. (rice)): 0% |
